In US11083725B2 (priority 2014, dated 2021):

Tested on: NHBE cells
Assay: Biolog metabolic array: substrate use by NHBE cells with or without CA09 infection
Type: cell-based, human
Conditions: for Substrate use, 590 nm absorbance normalized to zero hour, 0 hr: Biolog PMM2, 0 hr; for Substrate use, 590 nm absorbance normalized to zero hour, 1 hr: Biolog PMM2, 1 hr; for Substrate use, 590 nm absorbance normalized to zero hour, 5 hr: Biolog PMM2, 5 hr; for Substrate use, 590 nm absorbance normalized to zero hour, 7 hr: Biolog PMM2, 7 hr
[1] = Control (uninfected) NHBE cells
[2] = Virus (CA09-infected, MOI 1) NHBE cells
[3] = Virus: CA09-infected NHBE cells, MOI 1, Biolog PMM2
[4] = Virus (CA09, MOI 1) infected NHBE cells

| Molecule | 590 nm absorbance normalized to zero hour (substrate use), 1 hr [1] | 590 nm absorbance normalized to zero hour (substrate use), 2 hr [1] | 590 nm absorbance normalized to zero hour (substrate use), 3 hr [1] | 590 nm absorbance normalized to zero hour (substrate use), 4 hr [1] | 590 nm absorbance normalized to zero hour (substrate use), 6 hr [1] | 590 nm absorbance normalized to zero hour (substrate use), 8 hr [1] | 590 nm absorbance normalized to zero hour (substrate use), 9 hr [1] | 590 nm absorbance normalized to zero hour (substrate use), 10 hr [1] | 590 nm absorbance normalized to zero hour (substrate use), 11 hr [1] | Substrate use, 590 nm absorbance normalized to zero hour, 1 hr [1] | Substrate use, 590 nm absorbance normalized to zero hour, 5 hr [1] | Substrate use, 590 nm absorbance normalized to zero hour, 7 hr [1] | 590 nm absorbance normalized to zero hour (substrate use), 1 hr [2] | 590 nm absorbance normalized to zero hour (substrate use), 2 hr [2] | 590 nm absorbance normalized to zero hour (substrate use), 3 hr [2] | 590 nm absorbance normalized to zero hour (substrate use), 4 hr [2] | 590 nm absorbance normalized to zero hour (substrate use), 6 hr [2] | 590 nm absorbance normalized to zero hour (substrate use), 8 hr [2] | 590 nm absorbance normalized to zero hour (substrate use), 9 hr [2] | 590 nm absorbance normalized to zero hour (substrate use), 10 hr [2] | also measured |
| --- | --- | --- | --- | --- | --- | --- | --- | --- | --- | --- | --- | --- | --- | --- | --- | --- | --- | --- | --- | --- | --- |
| OC[C@H]1O[C@@](CO)(O[C@H]2O[C@H](CO)[C@@H](O)[C@H](O)[C@H]2O)[C@@H](O[C@H]2O[C@H](CO)[C@@H](O)[C@H](O)[C@H]2O)[C@@H]1O [D-Melezitose] | 1.47 | 1.93 | 2.23 | 2.39 | 3.85 | 3.55 | 3.84 | 4.31 | 3.97 | 1.47 | 2.80 | 3.32 | 1.67 | 2.39 | 2.73 | 2.88 | 3.57 | 3.98 | 4.49 | 4.69 | 590 nm absorbance normalized to zero hour (substrate use), 0 hr [1]: 1.00; Substrate use, 590 nm absorbance normalized to zero hour, 0 hr [1]: 1.00; 590 nm absorbance normalized to zero hour (substrate use), 0 hr [2]: 1.00; 590 nm absorbance normalized to zero hour (substrate use), 5 hr [2]: 3.35; 590 nm absorbance normalized to zero hour (substrate use), 7 hr [2]: 3.77; 590 nm absorbance normalized to zero hour (substrate use), 11 hr [2]: 5.01; 590 nm absorbance normalized to zero hour (substrate use), 0 hr [3]: 1.00; 590 nm absorbance normalized to zero hour (substrate use), 1 hr [3]: 1.67; 590 nm absorbance normalized to zero hour (substrate use), 2 hr [3]: 2.39; 590 nm absorbance normalized to zero hour (substrate use), 3 hr [3]: 2.73; 590 nm absorbance normalized to zero hour (substrate use), 4 hr [3]: 2.88; 590 nm absorbance normalized to zero hour (substrate use), 5 hr [3]: 3.35; 590 nm absorbance normalized to zero hour (substrate use), 6 hr [3]: 3.57; 590 nm absorbance normalized to zero hour (substrate use), 7 hr [3]: 3.77; 590 nm absorbance normalized to zero hour (substrate use), 8 hr [3]: 3.98; 590 nm absorbance normalized to zero hour (substrate use), 9 hr [3]: 4.49; 590 nm absorbance normalized to zero hour (substrate use), 10 hr [3]: 4.69; 590 nm absorbance normalized to zero hour (substrate use), 11 hr [3]: 5.01 |
| CC(=O)N[C@H]1C(O)O[C@H](CO)[C@@H](O)[C@@H]1O (stereo partly drawn) [N-Acetyl-D-Glucosamine] | 0.19 | 0.27 | 0.32 | 0.34 | 0.32 | 0.48 | 0.50 | 0.45 | 0.44 | 0.19 | 0.40 | 0.46 | 2.25 | 3.27 | 3.85 | 4.12 | 5.27 | 6.03 | 6.65 | 6.45 | Substrate use, 590 nm absorbance normalized to zero hour, 1 hr [4]: 2.25; Substrate use, 590 nm absorbance normalized to zero hour, 5 hr [4]: 4.99; Substrate use, 590 nm absorbance normalized to zero hour, 7 hr [4]: 5.67; 590 nm absorbance normalized to zero hour (substrate use), 11 hr [2]: 5.53 |
| Pectin | 3.40 | 1.82 | 1.76 | 1.72 | 2.65 | 0.95 | 1.44 | 1.37 | 0.91 | 3.40 | 1.45 | 1.44 | 3.25 | 2.85 | 0.75 | 0.80 | 0.95 | 1.05 | 1.15 | 1.17 | 590 nm absorbance normalized to zero hour (substrate use), 0 hr [1]: 1.00; Substrate use, 590 nm absorbance normalized to zero hour, 0 hr [1]: 1.00; 590 nm absorbance normalized to zero hour (substrate use), 0 hr [2]: 1.00; 590 nm absorbance normalized to zero hour (substrate use), 5 hr [2]: 0.91; 590 nm absorbance normalized to zero hour (substrate use), 7 hr [2]: 1.00; 590 nm absorbance normalized to zero hour (substrate use), 11 hr [2]: 1.27; 590 nm absorbance normalized to zero hour (substrate use), 0 hr [3]: 1.00; 590 nm absorbance normalized to zero hour (substrate use), 1 hr [3]: 3.25; 590 nm absorbance normalized to zero hour (substrate use), 2 hr [3]: 2.85; 590 nm absorbance normalized to zero hour (substrate use), 3 hr [3]: 0.75; 590 nm absorbance normalized to zero hour (substrate use), 4 hr [3]: 0.80; 590 nm absorbance normalized to zero hour (substrate use), 5 hr [3]: 0.91; 590 nm absorbance normalized to zero hour (substrate use), 6 hr [3]: 0.95; 590 nm absorbance normalized to zero hour (substrate use), 7 hr [3]: 1.00; 590 nm absorbance normalized to zero hour (substrate use), 8 hr [3]: 1.05; 590 nm absorbance normalized to zero hour (substrate use), 9 hr [3]: 1.15; 590 nm absorbance normalized to zero hour (substrate use), 10 hr [3]: 1.17; 590 nm absorbance normalized to zero hour (substrate use), 11 hr [3]: 1.27 |
